Broadly, the IC50 is the concentration that gives 50% inhibition. One may read the AC50 as the concentration at which the activity in the assay is half-maximal.

One test has as its target Human PARP1 (Homo sapiens (Human), UniProt P09874). The experiment in a line: PARP1 autoparsylation assay (LC/MS detection of nicotinamide). The conditions noted are these: 20 nM enzyme, 250 μM β-NAD+, 60 min. It counts as biochemical. The method, then:
(§1) The autoparsylation activity of the TNKS 1/2 or PARP1/2 enzymes was measured by the liquid chromatography-mass spectrometry (LC/MS) detection of nicotinamide as readout. Compound activity in inhibiting the TNKS and PARP autoparsylation was evaluated by IC50 measurements.

Test [1] concerns the target tankyrase 2 protein PARP domain, TNKS2P (Homo sapiens (Human), UniProt Q9H2K2). Put plainly: TNKS2 autoparsylation assay (LC/MS detection of nicotinamide). The conditions noted are these: read-out: TNKS2 AP IC50, 20 nM enzyme, 250 μM β-NAD+, 60 min.
Test [2] concerns Axin2 protein in SW480 cells. The experiment in a line: Cellular ELISA assay of Axin2 protein stabilization. The format is cell-based. Particulars: Homo sapiens, 24 hrs, read-out: Axin AC50. In a few lines:
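SW480 colorectal cells seeded overnight, treated with compound, then lysed. Axin2 in lysates measured by sandwich ELISA: anti-Axin2 capture antibody coated at 1 μg/ml (pH 9.2), lysate 2 h at room temperature, biotinylated anti-Axin2 detection 2 h, then streptavidin-HRP 30 min.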
A general note: An ELISA detects its analyte on a solid surface through an enzyme-linked reagent.

For the next test, the target named is PARP2 (Mus musculus (Mouse), UniProt O88554). Put plainly: PARP2 autoparsylation assay (LC/MS detection of nicotinamide). The format is biochemical. Particulars: 20 nM enzyme, 250 μM β-NAD+, 60 min. As for the experimental part: as §1
The target of test [3] is human tankyrase 1 PARP catalytic domain, TNKS1P (Homo sapiens (Human), UniProt O95271). The experiment in a line: TNKS1 autoparsylation assay (LC/MS detection of nicotinamide). Particulars: read-out: TNKS1 AP IC50, 20 nM enzyme, 250 μM β-NAD+, 60 min.
For test [4], the system named is Non-small lung cancer ABC-1 cells. Put plainly: Cellular proliferation assay (CellTiter-Glo). It counts as cell-based. The conditions noted are these: Homo sapiens, 72 h; ABC-1 cells, 3 days of compound treatment; read-out: ABC-1 IC50. On the technique in general: Cellular ATP, detected with luciferase, serves as a proxy for viable cell number.
Description: Cellular Proliferation Assay to Determine Compound Inhibition of Cancer Cell Growth
Viable cells were measured after 3 days of compound treatment using the CellTiter-Glo assay (Promega, G7570). Assay was performed following the manufacture protocol.
For test [5], the system named is Wnt ligand-induced signaling in HEK293 cells. Put plainly: Wnt-responsive Super-TOpFlash (STF) luciferase reporter gene assay. The format is cell-based. The conditions noted are these: Homo sapiens, Wnt3A condition medium. In a few lines:
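HEK293 cells (8000/well, 5% FBS medium) treated with 20% mouse L-cell Wnt3A conditioned medium plus compounds in 10-point serial dilution; luciferase read next day. Inhibition calculated relative to Wnt3A-induced signal without compound and background without Wnt3A CM or compound.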

Test [6] deals with Herpes Simplex Virus (HSV). The conditions noted are these: cited from earlier work.

Sequence of Human PARP1 (P09874 whole entry): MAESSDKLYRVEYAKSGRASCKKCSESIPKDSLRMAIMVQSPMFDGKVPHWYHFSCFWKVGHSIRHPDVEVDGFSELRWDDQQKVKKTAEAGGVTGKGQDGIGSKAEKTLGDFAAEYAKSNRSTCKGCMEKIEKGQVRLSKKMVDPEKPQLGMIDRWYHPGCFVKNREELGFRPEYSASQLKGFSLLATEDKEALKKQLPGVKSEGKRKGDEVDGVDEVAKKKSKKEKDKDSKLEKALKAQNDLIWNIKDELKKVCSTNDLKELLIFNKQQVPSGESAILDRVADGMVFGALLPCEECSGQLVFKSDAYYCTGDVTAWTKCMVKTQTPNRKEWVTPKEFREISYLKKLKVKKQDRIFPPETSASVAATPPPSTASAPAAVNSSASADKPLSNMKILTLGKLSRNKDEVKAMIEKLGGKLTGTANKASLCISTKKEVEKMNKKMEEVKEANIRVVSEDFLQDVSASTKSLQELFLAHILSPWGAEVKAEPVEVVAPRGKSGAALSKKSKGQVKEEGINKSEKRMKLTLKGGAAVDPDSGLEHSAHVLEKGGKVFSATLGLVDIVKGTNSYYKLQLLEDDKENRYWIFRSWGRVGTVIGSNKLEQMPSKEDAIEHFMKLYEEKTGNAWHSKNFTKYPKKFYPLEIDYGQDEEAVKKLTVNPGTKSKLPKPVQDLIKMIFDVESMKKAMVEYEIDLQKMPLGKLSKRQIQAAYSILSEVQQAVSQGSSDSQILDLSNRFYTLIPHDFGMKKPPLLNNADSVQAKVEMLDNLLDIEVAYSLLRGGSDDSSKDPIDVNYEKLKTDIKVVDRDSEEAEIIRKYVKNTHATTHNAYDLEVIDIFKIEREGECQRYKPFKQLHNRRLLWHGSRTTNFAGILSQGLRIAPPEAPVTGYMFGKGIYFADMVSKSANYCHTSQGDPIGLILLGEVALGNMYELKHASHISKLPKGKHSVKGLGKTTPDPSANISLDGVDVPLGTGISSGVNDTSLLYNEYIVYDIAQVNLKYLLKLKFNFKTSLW
Sequence of tankyrase 2 protein PARP domain, TNKS2P (Q9H2K2 959-1164): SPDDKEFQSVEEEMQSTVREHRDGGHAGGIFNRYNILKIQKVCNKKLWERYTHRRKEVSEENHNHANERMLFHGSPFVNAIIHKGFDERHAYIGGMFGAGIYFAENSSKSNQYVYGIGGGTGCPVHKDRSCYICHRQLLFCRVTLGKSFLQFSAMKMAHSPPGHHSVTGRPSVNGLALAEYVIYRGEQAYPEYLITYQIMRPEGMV
Sequence of PARP2 (O88554 whole entry, the tested form may be a part): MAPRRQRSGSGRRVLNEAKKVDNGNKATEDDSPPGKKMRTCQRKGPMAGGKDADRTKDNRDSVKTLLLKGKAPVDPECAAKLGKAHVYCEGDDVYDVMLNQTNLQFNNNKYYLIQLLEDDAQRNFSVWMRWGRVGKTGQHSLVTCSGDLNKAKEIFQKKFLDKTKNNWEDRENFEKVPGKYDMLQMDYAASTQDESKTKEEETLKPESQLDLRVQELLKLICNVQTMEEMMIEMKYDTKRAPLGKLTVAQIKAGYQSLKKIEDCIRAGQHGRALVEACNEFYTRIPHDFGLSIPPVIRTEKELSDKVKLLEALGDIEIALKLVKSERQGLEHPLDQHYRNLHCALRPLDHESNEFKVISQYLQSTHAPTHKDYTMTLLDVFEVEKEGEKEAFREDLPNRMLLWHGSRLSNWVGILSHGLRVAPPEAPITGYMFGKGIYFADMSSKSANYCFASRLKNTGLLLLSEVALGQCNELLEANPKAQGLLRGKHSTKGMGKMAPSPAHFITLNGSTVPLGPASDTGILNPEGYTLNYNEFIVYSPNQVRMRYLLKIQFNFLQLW
Sequence of human tankyrase 1 PARP catalytic domain, TNKS1P (O95271 1112-1317): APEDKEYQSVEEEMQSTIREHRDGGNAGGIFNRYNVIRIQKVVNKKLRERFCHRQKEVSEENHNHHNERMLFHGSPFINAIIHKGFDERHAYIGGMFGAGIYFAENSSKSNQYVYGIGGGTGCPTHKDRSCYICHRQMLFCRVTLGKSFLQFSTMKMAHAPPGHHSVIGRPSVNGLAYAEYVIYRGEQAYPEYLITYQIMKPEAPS

Consider `Cc1ccc(C(=O)C2CCN(CC(=O)NCc3nc4c(c(=O)[nH]3)COCC4)CC2)cc1` [Example 83, 2-[4-(4-Methyl-benzoyl)-piperidin-1-yl]-N-(4-oxo-3,5,7,8-tetrahydro-4H-pyrano[4,3-d]pyrimidin-2-ylmethyl)-acetamide], for which the IC50 against Human PARP1 is 8.3 ± 3 µM; in test [1] it was 0.018 ± 0.002 µM; against PARP2 it was 2.3 ± 0.36 µM; in test [3], 0.064 µM; in test [4], above 10 µM; in test [5] it was above 10 µM. In test [2], the half-maximal activity concentration (AC50) is above 10 µM.
As for `CCCOc1ccc(C(=O)C2CCN(CC(=O)NCc3nc4c(c(=O)[nH]3)COCC4)CC2)cc1` [Example 84, N-(4-Oxo-3,5,7,8-tetrahydro-4H-pyrano[4,3-d]pyrimidin-2-ylmethyl)2-[4-(4-propoxy-benzoyl)-piperidin-1-yl]acetamide], the IC50 at Human PARP1 came out at 4.8 ± 0.25 µM; in test [1], 0.013 ± 0.002 µM; against PARP2 it was 2.13 ± 0.44 µM; in test [3] it was 0.023 ± 0.005 µM; in test [4] it was 0.301 µM; in test [5], 0.011 ± 0.003 µM. Further, the AC50 in test [2] was determined as 0.162 ± 0.019 µM.
In the case of `O=C(CN1CCC(C(=O)c2ccc(OCC3CC3)cc2)CC1)NCc1nc2c(c(=O)[nH]1)COCC2` [Example 85, 2-[4-(4-Cyclopropylmethoxy-benzoyl)-piperidin-1-yl]-N-(4-oxo-3,5,7,8-tetrahydro-4H-pyrano[4,3-d]pyrimidin-2-ylmethyl)-acetamide], the concentration for half-maximal inhibition (IC50) on Human PARP1 is 4.5 ± 0.58 µM; in test [1], 0.01 ± 0.002 µM; against PARP2, 1.97 ± 0.26 µM; in test [3] it was 0.023 ± 0.002 µM; in test [4], 0.034 µM; in test [5] it was 0.0052 ± 0.0001 µM. Moreover, the AC50 in test [2] is 0.015 ± 0.002 µM.
For the compound `O=C(CN1CCC(C(=O)c2ccc(OCC3CCC3)cc2)CC1)NCc1nc2c(c(=O)[nH]1)COCC2` [Example 86, 2-[4-(4-Cyclobutylmethoxy-benzoyl)-piperidin-1-yl]-N-(4-oxo-3,5,7,8-tetrahydro-4H-pyrano[4,3-d]pyrimidin-2-ylmethyl)-acetamide], the 50% inhibitory concentration (IC50) was 2.05 ± 0.37 µM at Human PARP1; 0.012 ± 0.001 µM in test [1]; 0.885 ± 0.037 µM against PARP2; 0.03 ± 0.003 µM in test [3]; 0.041 µM in test [4]; 0.82 ± 0.41 µM in test [5]. Further, the AC50 in test [2] worked out at 0.029 ± 0.008 µM.
Consider `O=C(CN1CCC(C(=O)c2ccc(OC3CCOCC3)cc2)CC1)NCc1nc2c(c(=O)[nH]1)COCC2` [Example 87, N-(4-Oxo-3,5,7,8-tetrahydro-4H-pyrano[4,3-d]pyrimidin-2-ylmethyl)-2-{4-[4-(tetrahydro-pyran-4-yloxy)-benzoyl]-1-yl}-acetamide], for which the IC50 is 5.8 ± 1.3 µM against Human PARP1; 0.029 µM in test [1]; 2.84 ± 0.33 µM on PARP2; 0.067 ± 0.004 µM in test [3]; 0.032 µM in test [4]; 0.014 ± 0.001 µM in test [5]. The AC50 in test [2] came out at 0.04 ± 0.006 µM.
For `COCCOc1ccc(C(=O)C2CCN(CC(=O)NCc3nc4c(c(=O)[nH]3)COCC4)CC2)cc1` [Example 88, 2-{4-[4-(2-Methoxy-ethoxy)-benzoyl]-piperidin-1-yl}-N-(4-oxo-3,5,7,8-tetrahydro-4H-pyrano[4,3-d]pyrimidin-2-ylmethyl)-acetamide], the IC50 stood at 6.8 ± 2 µM against Human PARP1; 0.006 µM in test [1]; 2.37 ± 0.52 µM on PARP2; 0.026 ± 0.001 µM in test [3]; 0.087 µM in test [4]; 0.021 ± 0.005 µM in test [5]. Also, the AC50 in test [2] amounted to 0.069 ± 0.007 µM.
On to `O=C(CN1CCC(C(=O)c2ccc(OCCC3CC3)cc2)CC1)NCc1nc2c(c(=O)[nH]1)COCC2` [Example 89, 2-{4-[4-(2-Cyclopropyl-ethoxy)-benzoyl]-piperidin-1-yl}-N-(4-oxo-3,5,7,8-tetrahydro-4H-pyrano[4,3-d]pyrimidin-2-ylmethyl)-acetamide], for which the 50% inhibitory concentration (IC50) on Human PARP1 is 1.75 ± 0.02 µM; in test [1] it was 0.012 ± 0.002 µM; against PARP2, 0.92 ± 0.34 µM; in test [3], 0.021 ± 0.002 µM; in test [4], 0.087 µM; in test [5] it was 0.017 ± 0.004 µM. Also, in test [2], the AC50 is 0.052 ± 0.002 µM.
`O=C(CN1CCC(C(=O)c2ccc3c(c2)CCO3)CC1)NCc1nc2c(c(=O)[nH]1)COCC2` [Example 91, 2-[4-(2,3-Dihydro-benzofuran-5-carbonyl)-piperidin-1-yl]-N-(4-oxo-3,5,7,8-tetrahydro-4H-pyrano[4,3-c]pyrimidin-2-ylmethyl)-acetamide]: the 50% inhibitory concentration (IC50) was found to be 16.7 ± 0.4 µM at Human PARP1; 0.02 µM in test [1]; 4.53 ± 0.07 µM against PARP2; 0.04 ± 0.01 µM in test [3]; 0.116 µM in test [4]; 0.01 ± 0.007 µM in test [5]. Also, the concentration at half-maximal activity (AC50) in test [2] was determined as 0.053 ± 0.025 µM.
Consider `COc1ccc(C(=O)C2CCN(CC(=O)NCc3nc4c(c(=O)[nH]3)COCC4)CC2)cc1C` [Example 93, 2-[4-(4-Methoxy-3-methyl-benzoyl)-piperidin-1-yl]-N-(4-oxo-3,5,7,8-tetrahydro-4H-pyrano[4,3-d]pyrimidin-2-ylmethyl)-acetamide], for which the 50% inhibitory concentration (IC50) against Human PARP1 worked out at 17.1 ± 0.8 µM; in test [1] it was 0.012 µM; against PARP2 it was 4.26 ± 0.21 µM; in test [3], 0.033 ± 0.014 µM; in test [4], 2.01 µM; in test [5], 0.052 ± 0.012 µM. For the same compound, the half-maximal activity concentration (AC50) in test [2] amounted to 1.16 ± 0.15 µM.
On to `Oc1nc(-c2ccc(C(F)(F)F)cc2)nc2c1CSCC2` [XAV939], for which, in test [6], the HSV viral growth result is “decreased viral growth” and the “HSV viral protein expression” value is on record as “suppressed HSV viral protein expression”.

These data come from patent US9181266B2, “2-piperidin-1-yl-acetamide compounds for use as tankyrase inhibitors” (NOVARTIS AG, priority 2011, dated 2015).
